From patent US20220313620A1, “COMPOSITION FOR PREVENTING AND TREATING TAUOPATHIES” (SERVICIO ANDALUZ DE SALUD, priority 2019, published 2022)

Test system: mTOR
Assay: Hypothalamic mTOR phosphorylation (western blot) after acute oral gavage
Type: in vivo
Conditions: oral 500 mg/kg, adult male Wistar rats, hypothalamus, FIG. 3F
Method: After 18 hours of fasting, D-Pinitol dissolved in water was administered acutely by gavage (100 mg/kg in a first study, and 500 mg/kg in a subsequent study). After administration, the animals were sacrificed in groups at different times (being time 0 the administration of D-Pinitol). For the first study (100 mg/kg), groups of animals were sacrificed at times: 10, 20, 30, 60, 120, 240 and 360 minutes after administration; for the second study (500 mg/kg), animals were sacrificed at times: 60, 120 and 240 minutes after administration. As a control group, a group was administered only with water (by gavage). Animals were anesthetized with sodium pentobarbital (50 mg/Kg, i.p.), blood, brain and liver samples were collected. Blood was centrifuged (2100 g for 8 min, 4° C.) and the plasma kept for further analysis. Liver and brain samples were flash-frozen in liquid N2, then stored at −80° C. until further analysis. Brain extract. […] The expression of protein including mTOR (289 kDa) and Adaptin (100 kDa) were analysed by western blot. […] Bands were quantified by densitometric analysis using ImageJ software (Rasband, WS, Image), US National Institutes of Health, Bethesda, Md., USA).

Question: How did the “hypothalamic mTOR signaling through its phosphorylation” value turn out when `COC1[C@@H](O)[C@@H](O)C(O)[C@H](O)[C@H]1O` (stereo partly drawn) [DPIN, (1S,2S,4S,5R)-6-methoxycyclohexane-1,2,3,4,5-pentol] was run?
Answer: activation
